“And” between values parts separate entries of the source, which are not always exact repeats. Equal values may be shown once.
Experiments:
MBLAC2 = target: T1, MBLAC2 (Homo sapiens, UniProt Q68D91); experiment: Chemoproteomic competition pulldown assay with iC; type: binding; conditions: for relative binding vs DMSO: iC
T1 construct: endogenous in cells; host or cells: cell lysate
T1 sequence (Q68D91 1-279): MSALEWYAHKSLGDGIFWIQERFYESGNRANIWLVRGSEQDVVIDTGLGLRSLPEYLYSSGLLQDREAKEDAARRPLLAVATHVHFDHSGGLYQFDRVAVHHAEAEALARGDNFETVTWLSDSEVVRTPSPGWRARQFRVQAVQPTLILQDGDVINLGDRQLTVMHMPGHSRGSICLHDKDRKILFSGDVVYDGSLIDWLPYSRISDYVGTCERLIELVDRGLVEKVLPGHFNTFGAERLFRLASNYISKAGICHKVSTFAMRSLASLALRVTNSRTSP
Experimental: (§1) To identify proteins directly bound by lipoic acid, we employed a chemoproteomic competition assay. Briefly, (R/S)-LA was immobilized on sepharose beads via an amidation reaction to form an affinity matrix (abbreviated as iL; Fig. 1a). This affinity matrix can be incubated with cell lysate to pull down potential LA or LM target proteins and identify these targets via bottom-up proteomics. In a competition assay, free LA or LM were incubated with lysate at different concentrations before pulling down and quantifying target proteins. […] (Fig. 1b, see “Methods” for details). […] The lysate buffer used in this assay contains 1 mM DTT to mimic the intracellular reductive milieu and to reduce lipoic acid and LM. […] Additional competition assays performed in lung adenocarcinoma cell A549 lysate also identified HDAC1, HDAC2, and HDAC6 as targets (Supplementary Fig. 1b). Amongst the three cell lines tested, HDACs were the only confidently identified targets across the 1500–3000 proteins quantified in these assays. […] We validated the results by analogous pulldown competition assays using two other affinity matrices prepared via the immobilization of either the HDAC inhibitor Quisinostat (iQ) and an analog of the class IIa HDAC inhibitor Bürli’s 31[14] (iC)[12]. We have previously shown that these affinity matrices specifically bind to the active sites of HDACs and have used them for HDACi selectivity profiling. Indeed, binding of (R/S)-LA and (R/S)-LM to HDAC1, HDAC2, HDAC3, HDAC6, and, to a lesser extent, HDAC8 was confirmed in these assays (Supplementary Fig. 1c, d). No binding to class IIa HDACs or the recently discovered common HDAC inhibitor off-target MBLAC2 was observed (Supplementary Fig. 1e)[12]. […] This observation might reflect electrostatic repulsion between the HDAC10 active site gate-keeper glutamic acid residues[15],[16] and the terminal carboxylic acid of LA.
(§2) To assess the degree of protein depletion from lysates by the affinity matrix, a second pulldown (PDPD) with fresh beads was performed using the unbound protein fraction from the vehicle control flow through. The beads were washed (1 × 1 mL of lysis buffer without inhibitors and only 0.4% Igepal, 2 × 2 mL of lysis buffer without inhibitors and only 0.2% Igepal), and captured proteins were denatured with 8 M urea buffer, alkylated with 55 mM chloroacetamide and digested with Trypsin according to standard procedures. The resulting peptides were desalted on a C18 filter plate (Sep-Pak® tC18 µElution Plate, Waters), vacuum dried, and stored at −20 °C until LC–MSMS measurement.
(§3) For the competition assays, relative binding was calculated based on the protein intensity ratio to the DMSO control for every single inhibitor concentration. EC50 values were derived from a four-parameter log-logistic regression with variable slope (constrain: bottom > 0). The obtained EC50 values were multiplied with a protein-dependent correction factor (cf), resulting in the apparent Kd value (Kd^app). The correction factor is determined by calculating the ratio of the protein intensity of two consecutive pulldowns of the vehicle control sample[13]. Targets of the inhibitors were annotated manually according to published procedures[12],[46],[47]. […] Additionally, the number of unique peptides and MSMS counts per condition were taken into account. Positive target binding across several independent experiments performed with different cell lysates further substantiated our confidence for a true positive drug-target binding event.

A549 cells = experiment: Arsenite-induced stress granule formation (G3BP1 immunofluorescence); type: cell-based; conditions: for arsenite-induced stress granule quantification (G3BP1), Mean / arsenite-induced stress granule quantification (G3BP1), Median / arsenite-induced stress granule quantification (G3BP1), individual values: sheet 4b; for arsenite-induced stress granule quantification (G3BP1), individual values: single data points
Experimental: The acetylation status of proteins can affect their macromolecular associations and the tendency of proteins to phase-separate into liquid condensates such as stress granules. […] After pre-incubation of cells with the compound, stress granule formation was induced using 30 min of arsenite treatment (1 mM). After treatment, cells were fixed for immunofluorescence detection of stress granules via the common stress granule marker protein G3BP1[21].
0.03 × 10^6 A549 cells were seeded at 4-chamber slides (Thermo, Nunc) and cultured at 37 °C overnight. Cells were treated with HDAC inhibitor SAHA and Lipoic acid or LM for 6 h, followed by 1 mM Arsenite for 30 min. Cells were fixed by 4% PFA and permeabilized by 0.5% Triton X-100/PBS. 10% Goat serum in PBS was used for blocking. After manually selecting an area with cell confluency of 50–80%, 16 pictures were taken randomly around the central point (ZEISS software in-built function). Stress granule marker G3BP1 (Aviva Systems Biology, ARP37713_T100) was visualized and quantified by ImageJ. Statistical analysis was performed with GraphPad Prism.

ELMSAN1 = experiment: Chemoproteomic competition pulldown assay (co-competed MiDAC partner); type: binding
Experimental: as §1, §2, §3

DNTTIP1 = experiment: as above; type: binding
Experimental: as §1, §2, §3

[1] = iL, MV4-11 lysate, log10 M -3.52288
[2] = iL, MV4-11 lysate, log10 M -4.52288
[3] = iL, MV4-11 lysate, log10 M -5.52288
[4] = iL, MV4-11 lysate, log10 M -6.52288
[5] = iQ, SW620 lysate, log10 M -3.52288
[6] = iQ, SW620 lysate, log10 M -4.52288
[7] = iQ, SW620 lysate, log10 M -5.52288
[8] = iQ, SW620 lysate, log10 M -6.52288

For O=C(O)CCCCC1CCSS1 (racemic) [(R/S)-LA, (R/S)-lipoic acid], the “binding to MBLAC2” value (MBLAC2; affinity matrix iC) was “No binding”, the “relative binding vs DMSO” value (MBLAC2; log10 M -3.52288) was 0.9784 and the “relative binding vs DMSO” value (MBLAC2; log10 M -4) was 1.054. For the same compound, the “relative binding vs DMSO” value (MBLAC2; log10 M -4.52288) was 1.366, the “relative binding vs DMSO” value (MBLAC2; log10 M -5) was 1.348 and the “relative binding vs DMSO” value (MBLAC2; log10 M -5.52288) was 1.098. For the same compound, the “relative binding vs DMSO” value (MBLAC2; log10 M -6) was 1.484, the “relative binding vs DMSO” value (MBLAC2; log10 M -6.52288) was 0.5203 and the “relative binding vs DMSO” value (MBLAC2; log10 M -7) was 0.9131.
In the case of NC(=O)CCCCC1CCSS1 (racemic) [(R/S)-LM, (R/S)-lipoamide], the “arsenite-induced stress granule quantification (G3BP1), Mean” value (A549 cells; LM 100 uM) is reported as 50.8573, the “arsenite-induced stress granule quantification (G3BP1), Median” value (A549 cells; LM 100 uM) is reported as 45.1 and the “arsenite-induced stress granule quantification (G3BP1), individual values” (A549 cells; LM 100 uM) is reported as 71 and 31.1875 and 45 and 63.6 and 40.5 and 81.5 and 35.3333 and 36 and 53.7143 and 35.8571 and 38.125 and 41.75 and 45.1 and 52.8 and 44.3 and 63.75 and 64.7778 and 49.1818 and 58.6 and 39.7273 and 76.2. The “arsenite-induced stress granule quantification (G3BP1), Mean” value (A549 cells; LM 300 uM) was 32.0457, the “arsenite-induced stress granule quantification (G3BP1), Median” value (A549 cells; LM 300 uM) was 30.3222 and the “arsenite-induced stress granule quantification (G3BP1), individual values” (A549 cells; LM 300 uM) was 24.4375 and 30.6667 and 27.6923 and 44.9286 and 34.8 and 39.0909 and 43.75 and 27.5454 and 17.65 and 28.1111 and 42.3 and 13.75 and 29.6842 and 28.3684 and 12.875 and 35.8333 and 25.5 and 35.3077 and 30.4444 and 43.6667 and 30.2 and 36.2308 and 27.3889 and 58.875. For the same compound, the “arsenite-induced stress granule quantification (G3BP1), Mean” value (A549 cells; LM 1000 uM) was 21.5611, the “arsenite-induced stress granule quantification (G3BP1), Median” value (A549 cells; LM 1000 uM) was 21.7363 and the “arsenite-induced stress granule quantification (G3BP1), individual values” (A549 cells; LM 1000 uM) was 28.8889 and 25.875 and 20.6667 and 21.6154 and 30.8182 and 26.2857 and 7.556 and 13.9375 and 25.5714 and 28 and 21.25 and 20 and 16.75 and 17 and 9.615 and 15.3 and 22.6191 and 29.6154 and 21.8571. For the same compound, the “effect on stress granule numbers per cell” value (A549 cells; pre-incubation 6 h, then 1 mM arsenite 30 min) was “dose-dependent reduction of stress granule numbers per cell”, the “relative binding vs DMSO” value (ELMSAN1; [1]) was 0.05487 and the “relative binding vs DMSO” value (ELMSAN1; iL, MV4-11 lysate, log10 M -4) was 0.06564. The “relative binding vs DMSO” value (ELMSAN1; [2]) was 0.1508, the “relative binding vs DMSO” value (ELMSAN1; iL, MV4-11 lysate, log10 M -5) was 0.5058 and the “relative binding vs DMSO” value (ELMSAN1; [3]) was 0.6836. For the same compound, the “relative binding vs DMSO” value (ELMSAN1; iL, MV4-11 lysate, log10 M -6) was 0.7193, the “relative binding vs DMSO” value (ELMSAN1; [4]) was 0.7931 and the “relative binding vs DMSO” value (ELMSAN1; iL, MV4-11 lysate, log10 M -7) was 0.9008. The “relative binding vs DMSO” value (ELMSAN1; [5]) was 0, the “relative binding vs DMSO” value (ELMSAN1; iQ, SW620 lysate, log10 M -4) was 0 and the “relative binding vs DMSO” value (ELMSAN1; [6]) was 0.1474. The “relative binding vs DMSO” value (ELMSAN1; iQ, SW620 lysate, log10 M -5) was 0.6579, the “relative binding vs DMSO” value (ELMSAN1; [7]) was 0.8569 and the “relative binding vs DMSO” value (ELMSAN1; iQ, SW620 lysate, log10 M -6) was 0.8861. The “relative binding vs DMSO” value (ELMSAN1; [8]) was 0.626, the “relative binding vs DMSO” value (ELMSAN1; iQ, SW620 lysate, log10 M -7) was 0.8038 and the “relative binding vs DMSO” value (DNTTIP1; [1]) was 0.05556. For the same compound, the “relative binding vs DMSO” value (DNTTIP1; iL, MV4-11 lysate, log10 M -4) was 0.04853, the “relative binding vs DMSO” value (DNTTIP1; [2]) was 0.1384 and the “relative binding vs DMSO” value (DNTTIP1; iL, MV4-11 lysate, log10 M -5) was 0.4584. The “relative binding vs DMSO” value (DNTTIP1; [3]) was 0.6943, the “relative binding vs DMSO” value (DNTTIP1; iL, MV4-11 lysate, log10 M -6) was 0.6679 and the “relative binding vs DMSO” value (DNTTIP1; [4]) was 0.7085. For the same compound, the “relative binding vs DMSO” value (DNTTIP1; iL, MV4-11 lysate, log10 M -7) was 0.9632, the “relative binding vs DMSO” value (DNTTIP1; [5]) was 0.382 and the “relative binding vs DMSO” value (DNTTIP1; iQ, SW620 lysate, log10 M -4) was 0.3895. The “relative binding vs DMSO” value (DNTTIP1; [6]) was 0.5292, the “relative binding vs DMSO” value (DNTTIP1; iQ, SW620 lysate, log10 M -5) was 0.6889 and the “relative binding vs DMSO” value (DNTTIP1; [7]) was 0.738. For the same compound, the “relative binding vs DMSO” value (DNTTIP1; iQ, SW620 lysate, log10 M -6) was 0.858, the “relative binding vs DMSO” value (DNTTIP1; [8]) was 0.8975 and the “relative binding vs DMSO” value (DNTTIP1; iQ, SW620 lysate, log10 M -7) was 0.8297.
